Results from paper doi:10.1101/2021.10.04.463106, “A high throughput screening assay for inhibitors of SARS-CoV-2 pseudotyped particle entry” (bioRxiv, 2021).
pEC50: −log10 of the molar value. Counter-ions that a name gives are not always drawn.

Key:
[1] = test system: SARS-CoV-2-S PP (Wuhan-Hu-1 spike); assay: microbe, parasite or virus in culture; format: cell-based; conditions: Severe acute respiratory syndrome coronavirus 2, read-out: PP EC50
[2] = ATP content cytotoxicity assay; conditions: human, HEK293-ACE2 cells
[3] = test system: SARS-CoV-2 (USA_WA1/2020); format: cell-based
[4] = test system: VSV-G PP; format: cell-based, vesicular stomatitis virus

Structure (SMILES) | pEC50 [1] | EC50 at 48 h [2] [nM] | protective effect against cell death caused by the virus (CPE rescue) [3] | potency in the VSV-G PP entry counter assay compared with SARS-CoV-2-S PP entry [4]
CCOC(=O)[C@H]1O[C@@H]1C(=O)N[C@@H](CC(C)C)C(=O)NCCC(C)C [Aloxistatin, aloxistatin] | 6.72 | > 50000 | – | –
Cc1cccc(/C=N/Nc2cc(N3CCOCC3)nc(OCCc3ccccn3)n2)c1 [Apilimod, apilimod] | 6.92 | 9310 | – | –
COc1cc(N2CCC(N3CCN(C)CC3)CC2)ccc1Nc1ncc(Cl)c(Nc2ccccc2P(C)(C)=O)n1 [Brigatinib, brigatinib] | 5.37 | 670 | – | –
CCCC[C@@H](C=O)NC(=O)[C@H](CC(C)C)NC(=O)OCc1ccccc1 [Calpeptin, calpeptin] | 5.92 | > 50000 | – | –
Oc1ccc(Cl)cc1Cc1cc(Cl)ccc1O [Dichlorophen, dichlorophen] | 7.52 | – | not confirmed | –
Nc1ncnc2c1ncn2CCOCP(=O)(O)O [adefovir] | – | – | – | same potency
C[C@@H]1CCO[C@H]2Cn3cc(C(=O)NCc4ccc(F)cc4F)c(=O)c(O)c3C(=O)N12 [dolutegravir] | – | – | – | same potency
COc1cc2c(cc1Cc1cccc(Cl)c1F)c(=O)c(C(=O)O)cn2[C@H](CO)C(C)C [elvitegravir] | – | – | – | same potency
CC(C)OC(=O)OCOP(=O)(CO[C@H](C)Cn1cnc2c(N)ncnc21)OCOC(=O)OC(C)C [tenofovir disoproxil fumarate] | – | – | – | same potency
